In patent publication US12187728B2 (Raze Therapeutics, Inc., priority 2015, dated 2025):

Biological target: T1, Human MTHFD2 (Homo sapiens, UniProt P13995)
T1 construct: residues 36-350 in Uniport ID P13995; His6 (N); made in house; host or cells: E. coli
T1 sequence (P13995 36-350): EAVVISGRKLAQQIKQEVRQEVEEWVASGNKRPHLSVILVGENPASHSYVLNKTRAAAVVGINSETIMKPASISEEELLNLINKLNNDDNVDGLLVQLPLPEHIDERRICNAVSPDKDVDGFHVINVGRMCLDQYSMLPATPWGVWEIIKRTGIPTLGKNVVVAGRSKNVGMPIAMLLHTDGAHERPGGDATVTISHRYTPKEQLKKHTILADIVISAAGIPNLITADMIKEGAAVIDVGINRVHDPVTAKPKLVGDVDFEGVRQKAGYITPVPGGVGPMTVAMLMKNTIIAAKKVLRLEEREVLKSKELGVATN
Assay: MTHFD2 Activity Assay (dehydrogenase activity, diaphorase/resazurin coupled fluorescence)
Format: biochemical
Details: inhibitory activity (IC50 and/or binding constant); 0.2 nM MTHFD2, 11 concentrations
Method in brief: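 Steps: compound + 0.2 nM enzyme, 15 min, pH 8.0 Hepes buffer; add 70 μM CH2-THF, 1 mM NAD+, 100 μM resazurin, diaphorase; 30 min; quench with EDTA; read fluorescence. Data normalized to DMSO (100%) and no-enzyme (0%) wells.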

Row | IC50 [µM] | SMILES
1 | 0.01 to 1 | Cc1ccc2[nH]c(Cn3c(=O)c4c(nc(N5CCC(O)CC5)n4C)n(C)c3=O)cc2c1 [Example 193, 8-(4-hydroxypiperidin-1-yl)-3,7-dimethyl-1-((5-methyl-1H-indol-2-yl)methyl)-1H-purine-2,6(3H,7H)-dione]
2 | 1 to 5 | Cc1ccc2[nH]c(Cn3c(=O)c4c(nc(N5CC(O)C5)n4C)n(C)c3=O)cc2c1 [Example 194, 8-(3-hydroxyazetidin-1-yl)-3,7-dimethyl-1-((5-methyl-1H-indol-2-yl)methyl)-1H-purine-2,6(3H,7H)-dione]
3 | 1 to 5 | Cn1c(Nc2ncn[nH]2)nc2c1c(=O)n(Cc1cc3ccccc3[nH]1)c(=O)n2C [Example 195, 1-((1H-indol-2-yl)methyl)-8-(2H-1,2,4-triazol-3-ylamino)-3,7-dimethyl-1H-purine-2,6(3H,7H)-dione]
4 | 0.01 to 1 | Cn1c(Cn2c(=O)c3c(nc(N4CCC(O)CC4)n3C)n(C)c2=O)cc2cc(Cl)ccc21 [Example 196, 1-((5-chloro-1-methyl-1H-indol-2-yl)methyl)-8-(4-hydroxypiperidin-1-yl)-3,7-dimethyl-1H-purine-2,6(3H,7H)-dione]
5 | 0.01 to 1 | Cn1c(Cn2c(=O)c3c(nc(N4CC(O)C4)n3C)n(C)c2=O)cc2cc(Cl)ccc21 [Example 197, 1-((5-chloro-1-methyl-1H-indol-2-yl)methyl)-8-(3-hydroxyazetidin-1-yl)-3,7-dimethyl-1H-purine-2,6(3H,7H)-dione]
6 | 0.01 to 1 | Cn1c(N2CCC(O)CC2)nc2c1c(=O)n(Cc1cc3cc(Cl)ccc3[nH]1)c(=O)n2C [Example 198, 1-((5-chloro-1H-indol-2-yl)methyl)-8-(4-hydroxypiperidin-1-yl)-3,7-dimethyl-1H-purine-2,6(3H,7H)-dione]
7 | 1 to 5 | Cn1c(N2CC(O)C2)nc2c1c(=O)n(Cc1cc3cc(Cl)ccc3[nH]1)c(=O)n2C [Example 199, 1-((5-chloro-1H-indol-2-yl)methyl)-8-(3-hydroxyazetidin-1-yl)-3,7-dimethyl-1H-purine-2,6(3H,7H)-dione]
8 | 1 to 5 | Cn1c(Nc2cccnn2)nc2c1c(=O)n(Cc1cc3cc(Cl)ccc3[nH]1)c(=O)n2C [Example 200, 1-((5-chloro-1H-indol-2-yl)methyl)-3,7-dimethyl-8-(pyridazin-3-ylamino)-1H-purine-2,6(3H,7H)-dione]
9 | 0.01 to 1 | Cn1c(Nc2cccnn2)nc2c1c(=O)n(Cc1cc3ccccc3[nH]1)c(=O)n2C [Example 201, 1-((1H-indol-2-yl)methyl)-3,7-dimethyl-8-(pyridazin-3-ylamino)-1H-purine-2,6(3H,7H)-dione]
10 | 1 to 5 | Cc1ccc2[nH]c(Cn3c(=O)c4c(nc(Nc5ncn[nH]5)n4C)n(C)c3=O)cc2c1 [Example 202, 8-(1H-1,2,4-triazol-5-ylamino)-3,7-dimethyl-1-((5-methyl-1H-indol-2-yl)methyl)-1H-purine-2,6(3H,7H)-dione]
11 | 5 to 10 | Cn1c(Cn2c(=O)c3c(nc(Nc4cccnn4)n3C)n(C)c2=O)cc2cc(Cl)ccc21 [Example 203, 1-((5-chloro-1-methyl-1H-indol-2-yl)methyl)-3,7-dimethyl-8-(pyridazin-3-ylamino)-1H-purine-2,6(3H,7H)-dione]
12 | 0.01 to 1 | Cn1c(Cn2c(=O)c3c(nc(Nc4ccncn4)n3C)n(C)c2=O)cc2cc(Cl)ccc21 [Example 204, 1-((5-chloro-1-methyl-1H-indol-2-yl)methyl)-3,7-dimethyl-8-(pyrimidin-4-ylamino)-1H-purine-2,6(3H,7H)-dione]
13 | 0.01 to 1 | Cc1ccc2[nH]c(Cn3c(=O)c4c(nc(Nc5ccncn5)n4C)n(C)c3=O)cc2c1 [Example 205, 3,7-dimethyl-1-((5-methyl-1H-indol-2-yl)methyl)-8-(pyrimidin-4-ylamino)-1H-purine-2,6(3H,7H)-dione]
14 | 0.01 to 1 | Cn1c(Nc2cc[nH]c(=O)n2)nc2c1c(=O)n(Cc1cc3cc(Cl)ccc3[nH]1)c(=O)n2C [Example 206, 1-((5-chloro-1H-indol-2-yl)methyl)-3,7-dimethyl-8-(2-oxo-1,2-dihydropyrimidin-4-ylamino)-1H-purine-2,6(3H,7H)-dione]
